Values of other authors in patent US20030073608A1 (priority 2001, published 2003).

Tests used:
[1] = test system: ventral tegmental dopamine cells (A10); conditions: limbic-related A10 cells; Bymaster et al., Eur. J. Pharmacol. 1998
[2] = test system: substantia nigra dopamine cells (A9); conditions: Bymaster et al., Eur. J. Pharmacol. 1998

CCCSc1nsnc1[C@H]1CN2CCC[C@H]1C2 [PTAC]
antagonism of electrophysiological responses in ventral tegmental dopamine cells (A10) [1]: antagonizes electrophysiological responses | antagonism of substantia nigra dopamine cells (A9) [2]: does not antagonize
